Laboratory results reported in patent publication US5582986A, “Antisense oligonucleotide inhibition of the ras gene” (Isis Pharmaceuticals, Inc., priority 1994, dated 1996).
pIC50: −log10 of the molar value.

Experiments:
[1] = system: normal (wild-type) H-ras-luciferase reporter gene in HeLa cells; test: ras-luciferase reporter gene expression, normal (wild-type) form, transient transfection; assay type: cell-based, human; details: dose-response, luciferase activity as % of untreated transfected cells, read-out: IC50, inhibition of ras-luciferase activity, normal form
[2] = system: mutant (activated, codon-12) H-ras-luciferase reporter gene in HeLa cells; test: ras-luciferase reporter gene expression, mutant (codon-12, activated) form, transient transfection; assay type: cell-based, human

2570: phosphorothioate 17-mer CCA-CAC-CGA-CGG-CGC-CC, targeted to the codon-12 point mutation of activated H-ras RNA (antisense CCACACCGACGGCGCCC; all phosphorothioate, sugars by position and methylation of C not given here) [Oligo 2570]
pIC50 [1]: ~6.60
selectivity toward the mutant form of ras-luciferase as compared to the normal form ([2]; at low concentrations, dose-response (FIG. 2)): approximately threefold
pIC50 ([2]; dose-response, HeLa cells, luciferase activity as % of untreated transfected cells, read-out: IC50, inhibition of ras-luciferase activity, mutant form): ~7.00
inhibition of mutant ras-luciferase relative to wild-type ([2]; single dose 100 nM, HeLa cells, cationic lipid (FIG. 6)): four-fold
selectivity toward the mutated form of ras-luciferase as compared to the normal form (in words) ([2]; single dose 0.5 μM (FIG. 3, FIG. 4)): displayed selectivity toward the mutated form
